The text below walks through data of patent US7488738B2, “Aminophenoxyacetic acid derivatives and pharmaceutical composition containing thereof” (Asubio Pharma Co., Ltd., priority 1998, dated 2009).

The structures appear in SMILES notation.

The first test relates to cells of cerebral cortex. Description: Cytoprotective effect against glutamate induced cell death (MTT). Type of test: cell-based, rats of Wister strain. The settings on record: compound 1 μM added 24 h before 1 mM glutamate, fetal rat cerebral cortex cells, control group = 100%. The protocol: Biological Test 1: Cytoprotective Effect Against Glutamate Induced Cell Death
In accordance with the method of M. P. Mattoson [M. P. Mattoson, Brain Res. Rev., 13, 179 (1988)], brain of 18-days fetus rats of Wister strain were taken out. Then, cells of cerebral cortex (4×10^5 cells/ml) were seeded on poly-L-lysine coated 96 wells flat bottom plate (Sumitomo Bakelite Co., Ltd.) in concentration of 4×10^4 cells/each well. After 48 hours of incubation, 1 μM of test compounds were added, then after further 24 hours, 1 mM of glutamate were further added for inducing the cell injury. 12 hours after adding glutamate, MTT [3-(4,5-dimethylthiazol)-2,5-diphenyltetrazolium bromide] was added and incubated for 6 hours.
After incubation, 200 μl of dimethy sulfoxide was added to each wells, and the amounts of reduced MTT were calorimetrically analyzed by Micro ELISA Reader using 570 nm of main-wavelength and 650 nm of sub-wavelength.
The effect of the test compounds was determined as the survival rate of living cells (%) according to the following equation: Survival rate of living cells (%)=[(test compound group−glutamate treated group)÷(control group−glutamate treated group)]×100
That is, the survival rate of living cells after incubation of the control group was converted to 100%, and the survival data of living cells of the tested compounds was shown in Table II.
Take `Cc1cc(C)c(NCC(=O)N(C)C2CCN(CC(O)COc3ccccc3)CC2)c(C)c1N` (stereo not drawn) [Compound 126, 2-(3-Amino-2,4,6-tirmethylanilino)-N-[1-(2-hydroxy-3-phenoxy)propyl-4-piperidinyl]-N-methylacetamide]: the “Survival Rate (%) (Compound: 1 μM)” value came out at 47%. In the case of `Cc1cc(OC(C)C(=O)NC2CCN(C/C=C/c3ccccc3)CC2)c(C)c(C)c1N` (stereo not drawn) [Compound 84, 2-(4-Amino-2,3,5-trimethylphenoxy)-N-[1-(3-phenyl-2-(E)-propenyl)-4-piperidinyl]propamide], the “Survival Rate (%) (Compound: 1 μM)” value is recorded as 87%.

With `Cc1c(C)c(NCC(=O)N(C)C2CCN(CC3(c4ccccc4)CC3)CC2)c(C)c(C)c1N` [Compound 70, 2-(4-Amino-2,3,5,6-tetramethylanilino)-N-methyl-N-[1-(1-phenyl-1-cyclopropane)methyl-4-piperidinyl]acetamide], the “Survival Rate (%) (Compound: 1 μM)” value is recorded as 88%. For the compound `Cc1cc(OC(C)(C)C(=O)NC2CCN(C/C=C/c3ccccc3)CC2)c(C)c(C)c1N` [Compound 80, 2-(4-Amino-2,3,5-trimethylphenoxy)-2-methyl-N-[1-(3-phenyl-2-(E)-propenyl)-4-piperidinyl]propamide], the “Survival Rate (%) (Compound: 1 μM)” value was determined as 99%. As to `Cc1cc(OC(C)(C)C(=O)NC2CCN(CC3(c4ccccc4)CC3)CC2)c(C)c(C)c1N` [Compound 81, 2-(4-Amino-2,3,5-trimethylphenoxy)-2-methyl-N-[1-(1-phenyl-1-cyclopropane)methyl-4-piperidinyl]propamide], the “Survival Rate (%) (Compound: 1 μM)” value amounted to 97%. Regarding `Cc1c(C)c(NCC(=O)N(C)C2CCN(Cc3ccc(C(N)=O)cc3)CC2)c(C)c(C)c1N` [Compound 116], the “Survival Rate (%) (Compound: 1 μM)” value amounted to 59%. As to `Cc1cc(OC(C)(C)C(=O)NC2CCN(CC(=O)Nc3ccccc3)CC2)c(C)c(C)c1N` [Compound 82, 2-(4-Amino-2,3,5-trimethylphenoxy)-2-methyl-N-[1-(2-anilino-2-oxyethyl)-4-piperidinyl]propamide], the “Survival Rate (%) (Compound: 1 μM)” value was 149%. With `CCN(C(=O)C(C)Oc1cc(C)c(N)c(C)c1C)C1CCN(CC(=O)Nc2ccccc2)CC1` (stereo not drawn) [Compound 75, 2-(4-Amino-2,3,5-trimethylphenoxy)-N-[1-(2-anilino-2-oxyethyl)-4-piperidinyl]-N-ethylpropamide], the “Survival Rate (%) (Compound: 1 μM)” value came to 96%.

`Cc1cc(OC(C)(C)C(=O)N(C)C2CCN(CC(=O)Nc3c(C)cccc3C)CC2)c(C)c(C)c1N` [Compound 50, 2-(4-Amino-2,3,5-trimethylphenoxy)-2-methyl-N-[1-(2-(2,6-dimethyl)anilino-2-oxyethyl)-4-piperidinyl]-N-methyl-propamide]: the “Survival Rate (%) (Compound: 1 μM)” value was 54%. As to `Cc1cc(OC(C)(C)C(=O)NC2CCN(CC(=O)Nc3ccccc3C(C)(C)C)CC2)c(C)c(C)c1N` [Compound 100, 2-(4-Amino-2,3,5-trimethylphenoxy)-2-methyl-N-[1-(2-(2-tert-butylanilino)-2-oxyethyl)-4-piperidinyl]propamide], the “Survival Rate (%) (Compound: 1 μM)” value amounted to 138%. Regarding `Cc1cc(OC(C)C(=O)NC2CCN(CC3(c4ccccc4)CC3)CC2)c(C)c(C)c1N` (stereo not drawn) [Compound 101, 2-(4-Amino-2,3,5-trimethylphenoxy)-N-[1-(1-phenyl-1-cyclopropane)methyl-4-piperidinyl]propamide], the “Survival Rate (%) (Compound: 1 μM)” value stood at 138%. Take `Cc1cc(OCC(=O)NC2CCN(CC3(c4ccccc4)CC3)CC2)c(C)c(C)c1N` [Compound 96, 2-(4-Amino-2,3,5-trimethylphenoxy)-N-[1-(1-phenyl-1-cyclopropane)methyl-4-piperidinyl]acetamide]: the “Survival Rate (%) (Compound: 1 μM)” value worked out at 91%. Regarding `Cc1cc(OC(C)C(=O)N(C)C2CCN(CC3(c4ccccc4)CC3)CC2)c(C)c(C)c1N` (stereo not drawn) [Compound 90, 2-(4-Amino-2,3,5-trimethylphenoxy)-N-methyl-N-[1-(1-phenyl-1-cyclopropane)methyl-4-piperidinyl]propamide], the “Survival Rate (%) (Compound: 1 μM)” value was 149%.

Take `Cc1cc(NC(=O)CN2CCC(N(C)C(=O)C(C)(C)Oc3cc(C)c(N)c(C)c3C)CC2)c(C)cc1O` [Compound 107, 2-(4-Amino-2,3,5-trimethylphenoxy)-2-methyl-N-[1-(2-(2,5-dimethyl-4-hydroxy)anilino-2-oxyethyl]-4-piperidinyl]-N-methylpropamide]: the “Survival Rate (%) (Compound: 1 μM)” value came to 227%. Turning to `Cc1c(C)c(NCC(=O)N(C)C2CCN(CC(=O)Nc3ccccc3)CC2)c(C)c(C)c1N` [Compound 41, 2-(4-Amino-2,3,5,6-tetramethylanilino)-N-[1-(2-anilino-2-oxyethyl)-4-piperidinyl]-N-methylacetamide], the “Survival Rate (%) (Compound: 1 μM)” value was 86%. For `Cc1cc(OC(C)(C)C(=O)N(C)C2CCN(CCc3ccccc3)CC2)c(C)c(C)c1N` [Compound 38, 2-(4-Amino-2,3,5-trimethylphenoxy)-2-methyl-N-methyl-N-[1-(2-phenethyl)-4-piperidinyl]propamide], the “Survival Rate (%) (Compound: 1 μM)” value came to 114%. Regarding `Cc1cc(OCC(=O)N(C)C2CCN(CC(=O)N[C@@H]3C[C@H]3c3ccccc3)CC2)c(C)c(C)c1N` (relative stereo) [Compound 66], the “Survival Rate (%) (Compound: 1 μM)” value is 60%.

As to `Cc1c(C)c(OCC(=O)N(C)C2CCN(CC(=O)Nc3cc(Cl)c(N)cc3Cl)CC2)c(Cl)c(C)c1N` [Compound 92, 2-(4-Amino-2-chloro-3,5,6-trimethylphenoxy)-N-[1-(2-(4-amino-2,5-dichloro)anilino-2-oxyethyl)-4-piperidinyl]-N-methylacetamide], the “Survival Rate (%) (Compound: 1 μM)” value is on record as 66%. Regarding `Cc1cc(OCC(=O)N(C)C2CCN(CC(O)COc3ccccc3)CC2)c(C)c(C)c1N` (stereo not drawn) [Compound 65, 2-(4-Amino-2,3,5-trimethylphenoxy)-N-methyl-N-[1-(2-hydroxy-3-phenoxy)propyl-4-piperidinyl]acetamide], the “Survival Rate (%) (Compound: 1 μM)” value is listed as 73%. Consider `Cc1c(C)c(NC(C)C(=O)N(C)C2CCN(CC3CC3)CC2)c(C)c(C)c1N` (stereo not drawn) [Compound 121, 2-(4-Amino-2,3,5,6-tetramethylanilino)-N-[1-(cyclopropylmethyl)-4-piperidinyl]-N-methylpropamide], for which the “Survival Rate (%) (Compound: 1 μM)” value came to 82%. On the same count and under the same terms, to `Cc1cc(OC(C)(C)C(=O)NC2CCN(C[C@@H]3C[C@H]3c3ccccc3)CC2)c(C)c(C)c1N` (relative stereo) [Compound 99, 2-(4-Amino-2,3,5-trimethylphenoxy)-2-methyl-N-[1-(trans-2-phenyl-1-cyclopropylmethyl)-4-piperidinyl]propamide] belongs 151%; to `Cc1cc(OCC(=O)N(C)C2CCN(CC(=O)Nc3cccc(Cl)c3C)CC2)c(C)c(C)c1N` [Compound 45, 2-(4-Amino-2,3,5-trimethylphenoxy)-N-[1-(2-(3-chloro-2-methyl)anilino-2-oxyethyl)-4-piperidinyl]-N-methylacetamide], 190%; to `CN(C(=O)CNc1c(Cl)cc(N)cc1Cl)C1CCN(CC(=O)Nc2ccccc2)CC1` [Compound 139, 2-(4-Amino-2,6-dichloroanilino)-N-[1-(2-anilino-2-oxyethyl)-4-piperidinyl]-N-methylacetamide], 53%. As for `Cc1cc(OC(C)(C)C(=O)N(C)C2CCN(C/C=C/c3ccccc3)CC2)c(C)c(C)c1N` [Compound 67, 2-(4-Amino-2,3,5-trimethylphenoxy)-2-methyl-N-methyl-N-{1-(3-phenyl-2-(E)-propenyl)-4-piperidinyl]propamide], the “Survival Rate (%) (Compound: 1 μM)” value is 69%.

Staying with this test, now noted: compound 1 μM added 24 h before 1 mM glutamate, fetal rat cerebral cortex cells, control group = 100%, read-out: Survival Rate (%) (Compound: 1 μM).
For the compound `Cc1cc(C)c(NCC(=O)N(C)C2CCN(Cc3ccc4ccccc4c3)CC2)c(C)c1N` [Compound 133, 2-(3-Amino-2,4,6-trimethylanilino)-N-methyl-N-[1-(2-naphthyl)methyl-4-piperidinyl]acetamide], the viability at 1 µM was determined as 101%.

Consider `Cc1cc(OCC(=O)NC2CCN(C/C=C/c3ccccc3)CC2)c(C)c(C)c1N` [Compound 86, 2-(4-Amino-2,3,5-trimethylphenoxy)-N-[1-(3-phenyl-2-(E)-propenyl)-4-piperidinyl]acetamide], for which the viability at 1 µM worked out at 127%. On the same count and under the same terms, next, `Cc1cc(C)c(NCC(=O)N(C)C2CCN(Cc3ccccc3)CC2)c(C)c1N` [Compound 131, 2-(3-Amino-2,4,6-trimethylanilino)-N-(1-benzyl-4-piperidinyl)-N-methylacetamide]: 65%; `CCN(C(=O)CNc1c(C)c(C)c(N)c(C)c1C)C1CCN(C/C=C/c2ccccc2)CC1` [Compound 78, 2-(4-Amino-2,3,5,6-tetramethylanilino)-N-ethyl-N-[1-(3-phenyl-2-(E)-propenyl)-4-piperidinyl]acetamide]: 96%. On to `Cc1cc(C)c(N(C)C)c(C)c1NCC(=O)N(C)C1CCN(C(=O)c2ccccc2)CC1` [Compound 135, N-(1-benzoyl-4-piperidinyl)-2-(3-dimethylamino-2,4,6-trimethylanilino)-N-methylacetamide], for which the viability at 1 µM is 76%. The same measure, in the same setting: to `Cc1cc(OCC(=O)N(C)C2CCN(C/C=C/c3ccccc3)CC2)c(C)c(C)c1N` [Compound 53, 2-(4-Amino-2,3,5-trimethylphenoxy)-N-methyl-N-[1-(3-phenyl-2-(E)-propenyl)-4-piperidinyl]acetamide] belongs 144%.
